According to patent US12146004B2, “Polymyxin compounds and uses thereof” (priority 2014, dated 2024):
Values after ≈ are worked out from the molar mass of the structure shown. Like-named read-outs stand apart in the source and are kept apart here. Bridge positions count the residues as written; N and C are the ends. Square brackets hold non-standard residues; d marks the D form. Peptide text beside a SMILES is read from it. * marks the point of attachment. ξ: configuration not given here. ξHexahydromandeloyl = O=C(C(O)C1CCCCC1)*; X10 = NC[C@H](OCc1ccc(Cl)cc1)C(=O)*; dCha = N[C@H](CC1CCCCC1)C(=O)O; Thr(3ξ) = CC(O)[C@H](N)C(=O)O; X1 = CC(C)CN1CCNC[C@H]1C(=O)*; Dab = NCC[C@H](N)C(=O)O; Dap = NC[C@H](N)C(=O)O

Tests used:
Format in all cases: cell-based
[1] = tested on: Acinetobacter baumannii
Description: (§1) To evaluate the potency and spectrum of the compounds, susceptibility testing was performed against up to nine strains of each of the Gram negative pathogens, Escherichia coli, Pseudomonas aeruginosa, Klebsiella pneumoniae and Acinetobacter baumannii.
(§2) The values in Table 2 are MIC (μg/mL) against strains of E. coli, K. pneumoniae, P. aeruginosa and A. baumanii, including strains which show elevated MICs to Polymyxin.
(§3) The values in Table 2A are MIC (μg/mL).
(§4) The in vitro activity of compounds 26 and C7 (FADDI-02) against resistant bacterial strains was compared. The resistant strains included including Escherichia coli, Pseudomonas aeruginosa, Klebsiella pneumoniae and Acinetobacter baumannii strains. The data is provided in Table 2C, where the strains are identified. The values in Table 2 are MIC (μg/mL).

[2] = tested on: Escherichia coli
Description: as §1, §2, §3, §4

[3] = tested on: Klebsiella pneumoniae
Description: as §1, §2, §3, §4

[4] = tested on: Pseudomonas aeruginosa
Description: as §1, §2, §3, §4

Compound	MIC A. baumanii 053 [1]	MIC A. baumanii 056 [1]	MIC A. baumanii ATCC BAA-747 [1]	MIC A. baumanii NCTC 13424 [1]	MIC E. coli 058 [2]	MIC E. coli 061 [2]	MIC E. coli ATCC 25922 [2]	MIC K. pneumoniae 063 [3]	MIC K. pneumoniae 065 [3]	MIC K. pneumoniae ATCC 13882 [3]	MIC P. aeruginosa 068 [4]	MIC P. aeruginosa 070 [4]	MIC P. aeruginosa ATCC 27853 [4]	MIC P. aeruginosa CCUG 59347 [4]	MIC E. coli NCTC 9001 [2]	also measured
CC(C)C[C@@H]1NC(=O)[C@@H](CC2CCCCC2)NC(=O)[C@H](CCN)NC(=O)[C@@H](NC(=O)[C@H](CCN)NC(=O)[C@@H](NC(=O)[C@@H]2CNCCN2CC(C)C)C(C)O)CCNC(=O)[C@H]([C@@H](C)O)NC(=O)[C@H](CCN)NC(=O)[C@H](CCN)NC1=O (stereo partly drawn) [Example 52, (S)-1-isobutylpiperazine-2-carbonyl polymyxin [D-cyclohexylalanine]-6 nonapeptide] (X1-[Thr(3ξ)][Dab][Dab][Dab][dCha]L[Dab][Dab]T; lactam 3-C)	>64 µg/mL	>64 µg/mL	0.25 µg/mL (≈ 0.22 µM)	0.25 µg/mL (≈ 0.22 µM)	8 µg/mL (≈ 7.03 µM)	16 µg/mL (≈ 14.1 µM)	0.25 µg/mL (≈ 0.22 µM)	64 µg/mL (≈ 56.3 µM)	8 µg/mL (≈ 7.03 µM)	0.25 µg/mL (≈ 0.22 µM)	16 µg/mL (≈ 14.1 µM)	16 µg/mL (≈ 14.1 µM)	0.5 µg/mL (≈ 0.44 µM)	1 µg/mL (≈ 0.879 µM)	–	–
2-Aminomethyl-4- methyl pentanoyl polymyxin L-Thr-L-Dap- polymyxin [D-{4-(4- trifluoromethyl) phenyl} Phe]-6]heptapeptide. Isomer 1 [Example 19]	–	–	–	–	–	–	–	–	–	–	–	–	–	–	–	MIC A. baumanii ATCC BAA-747 ([1]; strain ATCC BAA-747): 1 µg/mL; MIC E. coli 058 ([2]; strain 058): 16 µg/mL; MIC E. coli ATCC 25922 ([2]; strain ATCC 25922): 1 µg/mL; MIC K. pneumoniae 065 ([3]; strain 065): 16 µg/mL; MIC K. pneumoniae ATCC 4352 ([3]; strain ATCC 4352): 1 µg/mL; MIC P. aeruginosa ATCC 27853 ([4]; strain ATCC 27853): 2 µg/mL
CC(C)C[C@@H]1NC(=O)[C@@H](CC2CCCCC2)NC(=O)[C@H](CCN)NC(=O)[C@@H](NC(=O)[C@H](CCN)NC(=O)[C@@H](NC(=O)[C@H](CCN)NC(=O)C(O)C2CCCCC2)C(C)O)CCNC(=O)[C@H]([C@@H](C)O)NC(=O)[C@H](CCN)NC(=O)[C@H](CCN)NC1=O (stereo partly drawn) [Example 37] (ξHexahydromandeloyl-[Dab][Thr(3ξ)][Dab][Dab][Dab][dCha]L[Dab][Dab]T; lactam 4-C)	–	–	0.125 µg/mL (≈ 0.103 µM)	0.5 µg/mL (≈ 0.413 µM)	8 µg/mL (≈ 6.61 µM)	–	0.06 µg/mL (≈ 0.0496 µM)	–	16 µg/mL (≈ 13.2 µM)	0.25 µg/mL (≈ 0.207 µM)	–	–	0.5 µg/mL (≈ 0.413 µM)	0.5 µg/mL (≈ 0.413 µM)	0.06 µg/mL (≈ 0.0496 µM)	–
CC(C)C[C@@H]1NC(=O)[C@@H](CC2CCCCC2)NC(=O)[C@H](CCN)NC(=O)[C@@H](NC(=O)[C@H](CN)NC(=O)[C@@H](NC(=O)C(CCN)OCc2cccc(Cl)c2)[C@@H](C)O)CCNC(=O)[C@H]([C@@H](C)O)NC(=O)[C@H](CCN)NC(=O)[C@H](CCN)NC1=O (single isomer, unassigned; isomer 1) [Example 82, 4-amino-2-((3-chlorobenzyl)oxy) butanoyl L-Thr-L-Dap-polymyxin [D-cyclohexylalanine-6]heptapeptide. Isomer 1]	64 µg/mL (≈ 54.2 µM)	16 µg/mL (≈ 13.5 µM)	0.125 µg/mL (≈ 0.106 µM)	0.03 µg/mL (≈ 0.0254 µM)	2 µg/mL (≈ 1.69 µM)	8 µg/mL (≈ 6.77 µM)	0.06 µg/mL (≈ 0.0508 µM)	32 µg/mL (≈ 27.1 µM)	2 µg/mL (≈ 1.69 µM)	0.125 µg/mL (≈ 0.106 µM)	4 µg/mL (≈ 3.39 µM)	8 µg/mL (≈ 6.77 µM)	0.125 µg/mL (≈ 0.106 µM)	0.125 µg/mL (≈ 0.106 µM)	0.015 µg/mL (≈ 0.0127 µM)	–
CC(C)C[C@@H]1NC(=O)[C@@H](CC2CCCCC2)NC(=O)[C@H](CCN)NC(=O)[C@@H](NC(=O)[C@H](CN)NC(=O)[C@@H](NC(=O)CC(CN)C2CCCCC2)C(C)O)CCNC(=O)[C@H]([C@@H](C)O)NC(=O)[C@H](CCN)NC(=O)[C@H](CCN)NC1=O (single isomer, unassigned; isomer 2) [Example 43, 4-amino-3-cyclohexylbutanoyl L-Thr-L-Dap-polymyxin [D-cyclohexylalanine]-6 heptapeptide. isomer 2]	–	–	–	–	–	–	–	–	–	–	–	–	–	–	–	MIC A. baumanii 053 ([1]; strain 053): 64 µg/mL (≈ 57 µM); MIC A. baumanii 056 ([1]; strain 056): 32 µg/mL (≈ 28.5 µM); MIC A. baumanii ATCC BAA-747 ([1]; strain ATCC BAA-747): 0.125 µg/mL (≈ 0.111 µM); MIC A. baumanii NCTC 13424 ([1]; strain NCTC 13424): 0.25 µg/mL (≈ 0.223 µM); MIC E. coli 058 ([2]; strain 058): 1 µg/mL (≈ 0.891 µM); MIC E. coli 061 ([2]; strain 061): 8 µg/mL (≈ 7.13 µM); MIC E. coli ATCC 25922 ([2]; strain ATCC 25922): 0.25 µg/mL (≈ 0.223 µM); MIC E. coli NCTC 9001 ([2]; strain NCTC 9001): 0.06 µg/mL (≈ 0.0535 µM); MIC K. pneumoniae 063 ([3]; strain 063): 16 µg/mL (≈ 14.3 µM); MIC K. pneumoniae 065 ([3]; strain 065): 0.5 µg/mL (≈ 0.445 µM); MIC K. pneumoniae ATCC 13882 ([3]; strain ATCC 13882): 0.25 µg/mL (≈ 0.223 µM); MIC P. aeruginosa 068 ([4]; strain 068): 2 µg/mL (≈ 1.78 µM); MIC P. aeruginosa 070 ([4]; strain 070): 2 µg/mL (≈ 1.78 µM); MIC P. aeruginosa ATCC 27853 ([4]; strain ATCC 27853): 0.25 µg/mL (≈ 0.223 µM); MIC P. aeruginosa CCUG 59347 ([4]; strain CCUG 59347): 0.25 µg/mL (≈ 0.223 µM)
CC(C)C[C@@H]1NC(=O)[C@@H](CC2CCCCC2)NC(=O)[C@H](CCN)NC(=O)[C@@H](NC(=O)[C@H](CN)NC(=O)[C@@H](NC(=O)[C@H](CN)OCc2ccc(Cl)cc2)[C@@H](C)O)CCNC(=O)[C@H]([C@@H](C)O)NC(=O)[C@H](CCN)NC(=O)[C@H](CCN)NC1=O [Example 81, (S)-3-amino-2-((4-chlorobenzyl)oxy) propanoyl L-Thr-L-Dap-polymyxin [D-cyclohexylalanine-6]heptapeptide] (X10-T[Dap][Dab][Dab][dCha]L[Dab][Dab]T; lactam 3-C)	32 µg/mL (≈ 27.4 µM)	8 µg/mL (≈ 6.86 µM)	0.125 µg/mL (≈ 0.107 µM)	0.125 µg/mL (≈ 0.107 µM)	1 µg/mL (≈ 0.857 µM)	16 µg/mL (≈ 13.7 µM)	0.125 µg/mL (≈ 0.107 µM)	16 µg/mL (≈ 13.7 µM)	4 µg/mL (≈ 3.43 µM)	0.125 µg/mL (≈ 0.107 µM)	2 µg/mL (≈ 1.71 µM)	2 µg/mL (≈ 1.71 µM)	0.125 µg/mL (≈ 0.107 µM)	0.25 µg/mL (≈ 0.214 µM)	0.03 µg/mL (≈ 0.0257 µM)	MIC K. pneumoniae ATCC 4352 [3]: 0.25 µg/mL (≈ 0.214 µM)
CC(C)C[C@@H]1NC(=O)[C@@H](CC2CCCCC2)NC(=O)[C@H](CCN)NC(=O)[C@@H](NC(=O)[C@H](CCN)NC(=O)[C@@H](NC(=O)C(CCN)c2ccc(F)cc2)C(C)O)CCNC(=O)[C@H]([C@@H](C)O)NC(=O)[C@H](CCN)NC(=O)[C@H](CCN)NC1=O (single isomer, unassigned; isomer 2) [Example 54, 4-amino-2-(4-fluorophenyl) butanoyl polymyxin [D-cyclohexylalanine]-6 nonapeptide isomer 2]	32 µg/mL (≈ 27.9 µM)	8 µg/mL (≈ 6.97 µM)	0.125 µg/mL (≈ 0.109 µM)	0.25 µg/mL (≈ 0.218 µM)	4 µg/mL (≈ 3.48 µM)	16 µg/mL (≈ 13.9 µM)	0.125 µg/mL (≈ 0.109 µM)	32 µg/mL (≈ 27.9 µM)	1 µg/mL (≈ 0.871 µM)	0.25 µg/mL (≈ 0.218 µM)	4 µg/mL (≈ 3.48 µM)	4 µg/mL (≈ 3.48 µM)	0.25 µg/mL (≈ 0.218 µM)	0.5 µg/mL (≈ 0.435 µM)	0.06 µg/mL (≈ 0.0522 µM)	–
CCC(C)CC(CCN)C(=O)N[C@H](C(=O)N[C@@H](CN)C(=O)N[C@H]1CCNC(=O)[C@H]([C@@H](C)O)NC(=O)[C@H](CCN)NC(=O)[C@H](CCN)NC(=O)[C@H](CC(C)C)NC(=O)[C@@H](CC2CCCCC2)NC(=O)[C@H](CCN)NC1=O)C(C)O (single isomer, unassigned; isomer 2) [Example 47, 2-(2-aminoethyl)-4-methylhexanoyl L-Thr-L-Dap-polymyxin [D-cyclohexylalanine]-6 heptapeptide. Isomer 2]	–	–	0.125 µg/mL (≈ 0.113 µM)	0.25 µg/mL (≈ 0.225 µM)	4 µg/mL (≈ 3.6 µM)	–	0.25 µg/mL (≈ 0.225 µM)	–	0.5 µg/mL (≈ 0.45 µM)	0.5 µg/mL (≈ 0.45 µM)	–	–	0.5 µg/mL (≈ 0.45 µM)	0.5 µg/mL (≈ 0.45 µM)	0.125 µg/mL (≈ 0.113 µM)	–
